Key:
[1] = tested on: TCRP1A CD8^+ T cells, Treg cells and PMN-MDSCs infiltrating TiRP tumors; assay: FACS analysis of tumor-infiltrating cells in TiRP-tumor bearing mice after adoptive cell transfer (ACT); format: in vivo; details: for tumor infiltration of the transferred TCRP1A CD8+ T cells / survival of the transferred TCRP1A CD8+ T cells (apoptosis, annexin V): 14 days after ACT, CTX 100 mg/kg one day before ACT and/or metformin 0.5 mg/ml drinking water; for tumor infiltration of the transferred TCRP1A CD8+ T cells: FIG. 3A; for survival of the transferred TCRP1A CD8+ T cells (apoptosis, annexin V): FIG. 3B
Description: (§1) TiRP mice have been created by crossing Ink4a/Arf^flox/flox mice with mice carrying a transgenic construct controlled by the tyrosinase promoter and driving the expression of H-Ras^12V and Trap 1 a which encodes a MAGE-type tumor antigen P1A; the promoter is separated from the coding region by a stop cassette made of a floxed self-deleting CreER (Huijbers et al., 2006, Cancer Res 66, 3278-3286). Those mice were backcrossed to a B10.D2 background and bred to homozygosity. TCRP1A mice heterozygous for the H-2Ld/P1A35-43-specific TCR transgene were kept on the B10.D2;Rag1^−/− background (Shanker et al., 2004, J Immunol 172, 5069-5077).
(§2) A fresh solution of 4OH-Tamoxifen was prepared by dissolving 4OH-Tamoxifen (Imaginechem) in 100% ethanol and mineral oil (ratio 1:9) followed by 30-min sonication, and injected subcutaneously (2 mg/200 μl per mouse) in the neck area of gender-matched 7 weeks old TiRP mice. Tumor appearance was monitored daily and tumors were measured three times/week. Tumor volume (in mm^3) was calculated by the following formula: Volume=width^2×length×π/6. Tumor-bearing TiRP mice were randomized based on the tumor size when average volume was 500 mm^3 and treated as indicated. For cyclophosphamide (CTX, Sigma C7397) treatment, mice received an intra-peritoneal injection of CTX at 100 mg/kg or vehicle (PBS) 24 h before adoptive cell transfer. For metformin treatment, metformin (Enzo, ALX-270-432) was dissolved in mice drinking water at a concentration of 0.5 mg/ml and administered to the mice from the moment of adoptive cell transfer until the end of the experiment; the solution was replaced three times/week.
(§3) For the adoptive cell transfer (ACT), P1A-specific (TCRP1A) CD8^+ T cells were isolated from spleens and lymph nodes of TCRP1A mice using anti-mouse CD8α (Ly-2) MicroBeads (Miltenyi Biotec), and stimulated in vitro by co-culture with irradiated (10.000 rads) L1210.P1A.B7-1 cells (Gajewski et al., 1995, J Immunol 154, 5637-5648) at 1:2 ratio (0.5×10^5 CD8^+ T cells and 10^5 L1210.P1A.B7-1 cells per well in 48-well plates) in IMDM (GIBCO) containing 10% fetal bovine serum supplemented with L-arginine (0.55 mM, Merck), L-asparagine (0.24 mM, Merck), glutamine (1.5 mM, Merck), betamercaptoethanol (50 μM, Sigma), 50 Uml^−1 penicillin and […] streptomycin (Life Technologies). Four days later, TCRP1A CD8^+ T cells were purified on a Lymphoprep gradient (StemCell) and 10^7 living cells were injected intravenously in 200 μl PBS in TiRP-tumor bearing mice.
For hypoxia detection, mice received an intraperitoneal injection of pimonidazole hydrochloride at 60 mg/kg (Hypoxyprobe) 45 minutes before tumor harvesting. Tumor single cell suspension was prepared using gentleMACS Dissociator and incubating the tissue in RMPI containing 0.04% collagenase I, 0.04% collagenase II and 0.05% dispase (all from GIBCO) for 1 hour at 37° C. After passing the cell suspension through a 70 μm- and 40 μm-cell strainer, red blood cell lysis was performed (eBioscience, 00-4300-54). Tumor cell preparation was stained with the Viability dye eFluor780 (eBioscience, 1:1000) to identify dead cells during the FACS analysis, and then incubated with Mouse BD Fc Block (BD, clone 2.4G2, 1:100) in PBS supplemented with 2% FBS and 2 mM EDTA. TCRP1A CD8^+ T cells were labeled by using H-2L^d PIA tetramer-PE (1 μM, produced in-house at the Ludwig Institute for Cancer Research) and anti-CD8α BV-421 (BioLegend, 53-6.7, 1:200); for apoptosis quantification, Annexin V APC (BioLegend, 1:20) was used. Hypoxic cells were identified with the anti-pimonidazole antibody (Hypoxyprobe, HP-FITC-Mab 4.3.11.3, 1:100) after cell fixation and permeabilization according to manufacturer's instructions (eBioscience Transcription Factor Staining Buffer Set).

[2] = tested on: TiRP mice (genetically engineered mouse melanoma model); assay: Tumor growth, tumor weight and survival of TiRP mice with or without ACT; format: in vivo; details: for tumor response to the immunotherapy (tumor growth) / tumor growth and tumor weight 14 days after ACT / tumor growth in the presence of ACT: TiRP mice with ACT; for tumor response to the immunotherapy (tumor growth): up to 22 days after ACT, FIG. 6A; for tumor growth and tumor weight 14 days after ACT: CTX 100 mg/kg the day before ACT and/or metformin 0.5 mg/ml for 14 days, FIG. 5; for tumor growth in the presence of ACT / tumor growth in absence of ACT: FIG. 7; for tumor growth in absence of ACT: TiRP mice without ACT
Description: as §1, §2, §3
Data entry and all analyses were performed in a blinded fashion. All statistical analyses were performed using GraphPad Prism software. Statistical significance was calculated by two-tailed unpaired t-test on two experimental conditions or two-way analysis of variance (ANOVA) when repeated measures were compared, with p<0.05 considered statistically significant. Independent experiments were pooled and analyzed together whenever possible. All graphs show mean values±s.e.m.

MC38 colon carcinoma = MC38 colon carcinoma tumor rejection with anti-PD-1 antibody; format: in vivo, mice; details: MC38, 16 days after treatment, associated with the PD-1 inhibitor; FIG. 9B-D
Description: (§4) Gender and age matched […] wild-type mice were used for the experiments with checkpoint inhibitors.
(§5) For the experiments with checkpoint inhibitors, gender matched, 7-9 weeks old […] wild-type mice were subcutaneously injected with 1 million of B16F1 or MC38 tumor cells. Mice were randomized based on the tumor size one week after the injection of tumor cells (B16F1 melanoma model) or when the average tumor size was between 90 and 120 mm^3 (MC38 colon carcinoma model). Tumor-bearing mice were then treated with CTX or PBS as described above. One day after, metformin was prepared as mentioned above and added to the mice drinking water until the end of the experiment. A dose of 100 μg/mouse of anti-PD-1 antibody (clone RMP1-14, Bio-X-Cell) or RatIgG2a isotype (clone 2A3, Bio-X-Cell) was injected intraperitoneally three times (B16F1 model) or four times (MC38 model) every three or four days starting from the day after CTX or PBS treatment.

B16F1 melanoma tumors = assay: B16F1 melanoma tumor growth with anti-PD-1 antibody or isotype control; format: in vivo, mice; details: FIG. 8A; for growth of B16F1 melanoma tumors, single treatment: B6 mice
Description: as §4, §5

Compound | infiltration of TCRP1A CD8^+ T cells in the tumor ([1]; 4 days after ACT, metformin 0.5 mg/ml in drinking water from ACT, vs vehicle, FIG. 1A) | recruitment of TCRP1A CD8^+ T cells to the hypoxic regions of the tumor ([1]; 4 days after ACT, metformin 0.5 mg/ml in drinking water, pimonidazole-positive, FIG. 1B) | tumor infiltration of the transferred TCRP1A CD8+ T cells [1] | survival of the transferred TCRP1A CD8+ T cells (apoptosis, annexin V) [1] | tumor response to the immunotherapy (tumor growth) [2] | tumor growth and tumor weight 14 days after ACT [2] | tumor growth in the presence of ACT [2] | tumor growth in absence of ACT [2] | mice that had rejected the tumor (MC38 colon carcinoma) [%] | growth of B16F1 melanoma tumors, single treatment (B16F1 melanoma tumors) | tumor response to the PD-1 inhibitor (B16F1 melanoma tumors; B16F1, associated with anti-PD-1 antibody 100 μg on day 0, 3, 7, C, D) | tumor infiltration of Treg cells ([1]; 4 days after ACT, single injection of CTX 100 mg/kg one day before ACT, FIG. 2A) | tumor infiltration of PMN-MDSCs ([1]; 4 days after ACT, single injection of CTX 100 mg/kg one day before ACT, FIG. 2B)
CN(C)C(=N)N=C(N)N [metformin, 3-(diaminomethylidene)-1,1-dimethylguanidine] | significantly increased | allowed the recruitment | increased tumor infiltration | increased survival | did not seem to induce a significant tumor response | seemed to partially reduce tumor growth | did not inhibit tumor growth | did not inhibit tumor growth | 20 | not significantly affected | did not seem to induce a significant tumor response |  | 
O=P1(N(CCCl)CCCl)NCCCO1 (stereo not drawn) [cyclophosphamide, 2-[bis(2-chloroethyl)amino]-1,3,2λ^5-oxazaphosphinan-2-one] |  |  | increase | increase | did induce a significant tumor response | allowed an inhibition of the tumor growth | tumor response was improved by the immunotherapy | significantly reduced tumor growth | 40 | induced per se a significant tumor response |  | reduced | reduced
